Columns and labels:
Recombinant human IL4I1 = target: T1, Recombinant human IL4I1 (Homo sapiens, UniProt Q96RQ9); experiment: Evaluation of Ki, fluorometric IL4I1 assay; assay type: biochemical; details: for Ki: average of three experiments; for IL4I1 Inhibitor: recombinant human IL4I1, 30 min pre-incubation
T1 construct: purchased R&D Systems, Inc
T1 sequence (Q96RQ9 22-567): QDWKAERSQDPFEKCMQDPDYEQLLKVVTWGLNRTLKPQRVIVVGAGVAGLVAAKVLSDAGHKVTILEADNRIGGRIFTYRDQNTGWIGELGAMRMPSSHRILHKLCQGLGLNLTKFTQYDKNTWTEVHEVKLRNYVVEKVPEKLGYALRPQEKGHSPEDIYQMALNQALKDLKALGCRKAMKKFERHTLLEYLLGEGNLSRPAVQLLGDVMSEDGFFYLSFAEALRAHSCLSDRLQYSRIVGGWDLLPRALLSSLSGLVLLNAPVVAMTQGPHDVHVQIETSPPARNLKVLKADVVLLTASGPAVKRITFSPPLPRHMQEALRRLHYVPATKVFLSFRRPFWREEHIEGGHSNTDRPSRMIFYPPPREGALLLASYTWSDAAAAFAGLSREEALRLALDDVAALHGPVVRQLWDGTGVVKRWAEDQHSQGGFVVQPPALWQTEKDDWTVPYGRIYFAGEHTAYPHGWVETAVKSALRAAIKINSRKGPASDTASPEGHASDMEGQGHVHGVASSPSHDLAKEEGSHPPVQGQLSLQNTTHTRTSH
Procedure: Evaluation of Ki. Recombinant human IL4I1 (from R&D Systems, Inc) was diluted in PBS at 100 µg/mL and pre-incubated for 30 min with decreasing amounts of each inhibitor dissolved in DMSO (50, 25, and 2.5 μM) or DMSO as a control. The activity was tested in the presence of various amounts of substrate ([…] phenylalanine) using the fluorometric IL4I1 assay described by Carbonnelle-Puscian et al. (Leukemia, 2009, volume 23, pages 952-960 (2009). Ki were calculated using Graph Pad Prism.
Recombinant human IL4I1 was diluted in PBS at 100 µg/mL and pre-incubated for 30 min with decreasing amounts of each inhibitor dissolved in DMSO (50, 25, or 2.5 μM) or DMSO alone, as a control, and IL4I1 measured. […] Compound 13 inhibits IL4l1 activity with an almost 10-fold higher Ki.

PBMC = experiment: Evaluation of apoptosis, activated caspase-3 staining, PBMC; assay type: cell-based, human; details: 100 μM, 24 h
Procedure: (§1) Evaluation of Apoptosis. Cells were seeded at 0.5×10^6/mL in 24-well plates, with or without the compounds at 100 μM or 10 μM etoposide (VP16) as a positive control, and incubated at 37° C. for 24 h. Cells were then fixed and permeabilized using cytox/cytoperm solution (BD Bioscience) followed by the addition of anti-activated caspase 3-AlexaFluor 647 (Rabbit anti-active Caspase 3 clone C92-605, BD Pharmingen). Caspase-3 positive cells were evaluated using a Cyan ADP LX7 (Beckman Coulter) and analyzed using Flowjo.
(§2) (A) Activated caspase-3 staining of Jurkat cells and (B) PBMC. Cells at 0.5×10^6/mL were seeded in 24-well plates with or without the compounds at 100 μM or 10 μM etoposide (VP16), as a positive control, and incubated at 37° C. for 24 h. Twenty-four hours after treatment, apoptotic Caspase-3 positive cells were evaluated by FACS. Data are expressed as the percentage of Caspase-3 positive cells±SD from three independent experiments.

Jurkat cells [1] = experiment: Metabolic proliferation (CellTiter 96 Non-Radioactive Cell Proliferation Assay); assay type: cell-based; details: CellTiter 96, relative to DMSO control
Procedure: (§3) Cell counts. Jurkat cells were seeded at 0.1×10^6/mL in a 24-well plate and an aliquot mixed with Trypan blue and counted at days 1, 2, 3, and 6 using disposable Fast-read 10 chambers. Evaluation of metabolic proliferation. Jurkat cells were seeded at 0.1×10^6/mL in a 96-well plate and incubated at 37° C. in 5% CO2 for various times. At each time point, cells were centrifuged, the medium removed, and CellTiter 96® Non-Radioactive Cell Proliferation Assay reagent (Promega) added and the cells incubated an additional 4 h before measuring the optical density at 570 nm in a plate reader (BMG Labtech Fluostar Optima).
(§4) (A) Jurkat cells were seeded at 0.1×10^6/mL in a 24-well plate and an aliquot mixed with Trypan blue and counted at days 1, 2, 3, and 6. Data are the average±SD of three independent experiments. (B) Jurkat cells were seeded at 0.1×10^6/mL in a 96-well plate and incubated at 37° C. in 5% CO2 for the times indicated in FIG. 2. At each time point, cells were centrifuged, the medium removed, and the CellTiter 96® Non-Radioactive Cell Proliferation Assay (Promega) performed. Data are reported as the percentage of proliferation relative to that of the control samples (treated with DMSO) and are the average±SD of three independent experiments. *** p<0,001, **** p<0,0001 Two-way ANOVA test.

Jurkat cells [2] = experiment: Evaluation of apoptosis, activated caspase-3 staining, Jurkat cells; assay type: cell-based; details: 100 μM, 24 h
Procedure: as §1, §2

Jurkat cells [3] = experiment: Jurkat cell counts (Trypan blue); assay type: cell-based; details: for Jurkat cell proliferation measured by cell counting: Trypan blue counts at days 1, 2, 3 and 6
Procedure: as §3, §4

PBMCs = experiment: Cell proliferation of CPD eFluor670-labeled, anti-CD3 stimulated PBMCs (FACS); assay type: cell-based, human; details: for division index / proliferation index: PBMCs, relative to cells treated with DMSO; for proliferation of PBMCs: anti-CD3 stimulated, days 3 and 6, relative to DMSO
Procedure: (§5) Evaluation of cell proliferation. Jurkat cells and PBMCs were labeled with 2 μM Cell Proliferation Dye (CPD) eFluor670 for 10 min at 37° C. DMSO or the compounds were added to labeled PBMCs or Jurkat cells before putting them in culture at 0.2×10^6/well. Jurkat cells were cultured under standard conditions, whereas PBMCs were cultured in 96 U-shaped wells pre-coated with a 0.5 μg/mL solution of anti-CD3 (clone OKT3) functional quality antibody (eBioscience). Cells were collected at day 0, 3, and 6 for fluorescence analysis using a Cyan ADP LX7 (Beckman Coulter). Data were analyzed using Flowjo.
Cell proliferation dye fluor670-labeled PBMCs were stimulated to proliferate in 96-well anti-CD3 coated plates and analyzed at days 3 and 6 by FACS gating on the lymphocytes population. (A) A typical FACS analysis at day 3 is shown. (B) The division (left panel) and proliferation indices (right panel) were calculated using FlowJo. Data are representative of three independent experiments.

Jurkat cells [4] = experiment: Cell proliferation of CPD eFluor670-labeled Jurkat cells (FACS); assay type: cell-based; details: data not shown
Procedure: as §5

[5] = compounds disclosed in WO2010/06685

| Structure (SMILES) | Ki (Recombinant human IL4I1) [µM] | IL4I1 Inhibitor (Recombinant human IL4I1) | apoptosis of PBMCs (Caspase-3 positive cells) (PBMC) | Jurkat cell proliferation measured by metabolic labeling (Jurkat cells [1]) | apoptosis of Jurkat cells (Caspase-3 positive cells) (Jurkat cells [2]) | Jurkat cell proliferation measured by cell counting (Jurkat cells [3]) | Ki (Recombinant human IL4I1; [5]) [µM] | fold higher Ki (Recombinant human IL4I1; Ki compared with the other tested compounds) [fold] | division index (PBMCs) | proliferation index (PBMCs) | proliferation of PBMCs (PBMCs) | proliferation of Jurkat cells (Jurkat cells [4]) | toxicity to Jurkat cells (Jurkat cells [3]; six days of culture) |
| --- | --- | --- | --- | --- | --- | --- | --- | --- | --- | --- | --- | --- | --- |
| CCOC(=O)C(Cc1c(Cl)cccc1Cl)N1CCCCC1 (stereo not shown) [Cp 7] | 9.8 | Yes | induced | strongly inhibits proliferation | induced | strongly inhibits proliferation | – | – | – | – | – | – | – |
| CCOC(=O)[C@@H](N)Cc1ccccc1 [L-phenylalanine ethyl ester, reference compound] | – | – | – | – | – | – | 3100 | – | – | – | – | – | – |
| CCOC(=O)C(Cc1ccccc1)N(CC)CC (stereo not shown) [Cp 13] | 102 | Yes | do not induce significant apoptosis | do not affect cell proliferation | do not induce significant apoptosis | do not affect cell proliferation | – | ~10 | do not vary markedly | do not vary markedly | not substantially modified | not substantially modified | – |
| CCCNC(Cc1ccccc1)C(=O)OCC (stereo not shown) [Cp 2] | 21.3 | Yes | do not induce significant apoptosis | do not affect cell proliferation | do not induce significant apoptosis | do not affect cell proliferation | – | – | do not vary markedly | do not vary markedly | not substantially modified | not substantially modified | – |
| NC(Cc1ccccn1)C(=O)O (stereo not shown) [2′-aza-phenylalanine, reference compound] | – | – | – | – | – | – | 2800 | – | – | – | – | – | – |
| CCOC(=O)C(Cc1ccccc1)Nc1ccccc1C(O)C(=O)OCC (stereo not shown) [Cp 16] | 25 | Yes | – | – | does not induce apoptosis | – | – | – | – | – | – | – | – |
| CC(=O)N[C@@H](Cc1ccccc1)C(=O)O [N-acetyl-phenylalanine, reference compound] | – | – | – | – | – | – | 2100 | – | – | – | – | – | – |
| CCOC(=O)C(Cc1ccccc1)Nc1ccccc1 (stereo not shown) [Cp 15] | 26.9 | Yes | – | – | – | no cells remained after six days of culture | – | – | – | – | – | – | toxic |
